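Step 1: Grow cells in 96-well plates. Step 2: Expose to compound for 48 hours at 5 concentrations. Step 3: Interpolate endpoints linearly; if unreached, use highest concentration. GI50 marks 50% less growth.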 Calls of active or inactive are those of the source. No stated cut-off is given here; in the data, active = GI50 up to about 1.1 µM and inactive = higher.
How the values were obtained:
Assay in all cases: DTP human tumour cell line panel, 48 h
[1] = test system: 786-0
[2] = test system: A498
[3] = test system: A549
[4] = test system: ACHN
[5] = test system: BT-549
[6] = test system: CAKI-1
[7] = test system: CCRF-CEM
[8] = test system: COLO 205
[9] = test system: DU-145
[10] = test system: EKVX
[11] = test system: HCC 2998
[12] = test system: HCT-116
[13] = test system: HCT-15
[14] = test system: HL-60
[15] = test system: HOP-62
[16] = test system: HOP-92
[17] = test system: HT-29
[18] = test system: Hs-578T
[19] = test system: IGROV-1
[20] = test system: K562
[21] = test system: KM12
[22] = test system: LOX IMVI
[23] = test system: M14
[24] = test system: MCF7
[25] = test system: MDA-MB-231
[26] = test system: MDA-MB-435
[27] = test system: MDA-N
[28] = test system: MOLT-4
[29] = test system: Malme-3M
[30] = test system: NCI-H226
[31] = test system: NCI-H23
[32] = test system: NCI-H460
[33] = test system: NCI-H522
[34] = test system: NCI/ADR-RES
[35] = test system: OVCAR-3
[36] = test system: OVCAR-4
[37] = test system: OVCAR-5
[38] = test system: OVCAR-8
[39] = test system: PC-3
[40] = test system: RPMI-8226
[41] = test system: RXF 393
[42] = test system: SF-268
[43] = test system: SF-295
[44] = test system: SF-539
[45] = test system: SK-MEL-28
[46] = test system: SK-MEL-2
[47] = test system: SK-MEL-5
[48] = test system: SK-OV-3
[49] = test system: SN12C
[50] = test system: SNB-19
[51] = test system: SNB-75
[52] = test system: SR
[53] = test system: SW-620
[54] = test system: T47D
[55] = test system: TK-10
[56] = test system: U-251
[57] = test system: UACC-257
[58] = test system: UACC-62
[59] = test system: UO-31

`Cc1nc(O)nc2nc3ccc(Cl)cc3c(NC(C)(CO)CO)c12` was tested, and the GI50 [1] was > 57.4 µM (inactive), the GI50 [2] was > 100 µM (inactive) and the GI50 [3] was > 34.4 µM (inactive). The GI50 [4] was 39 µM (inactive), the GI50 [5] was 62.8 µM (inactive) and the GI50 [6] was 13.9 µM (inactive). For the same compound, the GI50 [7] was > 26.8 µM (inactive), the GI50 [8] was > 100 µM (inactive) and the GI50 [9] was > 70.1 µM (inactive). For the same compound, the GI50 [10] was 24.9 µM (inactive), the GI50 [11] was > 100 µM (inactive) and the GI50 [12] was 26.7 µM (inactive). The GI50 [13] was 88.3 µM, the GI50 [14] was > 100 µM (inactive) and the GI50 [15] was 21.2 µM (inactive). For the same compound, the GI50 [16] was 74.1 µM (inactive), the GI50 [17] was > 100 µM (inactive) and the GI50 [18] was 46.9 µM (inactive). The GI50 [19] was 49.9 µM (inactive), the GI50 [20] was > 100 µM (inactive) and the GI50 [21] was > 100 µM (inactive). For the same compound, the GI50 [22] was 55.6 µM (inactive), the GI50 [23] was > 100 µM (inactive) and the GI50 [24] was > 68.4 µM (inactive). The GI50 [25] was 31.6 µM (inactive), the GI50 [26] was > 100 µM (inactive) and the GI50 [27] was 99.1 µM (inactive). The GI50 [28] was > 40.8 µM (inactive), the GI50 [29] was > 100 µM (inactive) and the GI50 [30] was > 84.5 µM (inactive). For the same compound, the GI50 [31] was 63.5 µM (inactive), the GI50 [32] was > 71.1 µM (inactive) and the GI50 [33] was 24.2 µM (inactive). For the same compound, the GI50 [34] was > 100 µM (inactive), the GI50 [35] was > 61.2 µM (inactive) and the GI50 [36] was > 57 µM (inactive). The GI50 [37] was > 100 µM (inactive), the GI50 [38] was 72.3 µM (inactive) and the GI50 [39] was 57.9 µM (inactive). For the same compound, the GI50 [40] was 30.8 µM (inactive), the GI50 [41] was 20.1 µM (inactive) and the GI50 [42] was 40.6 µM (inactive). For the same compound, the GI50 [43] was 66.5 µM (inactive), the GI50 [44] was > 50.6 µM (inactive) and the GI50 [45] was > 100 µM (inactive). For the same compound, the GI50 [46] was > 100 µM (inactive), the GI50 [47] was > 60 µM (inactive) and the GI50 [48] was 36.9 µM (inactive). For the same compound, the GI50 [49] was > 100 µM (inactive), the GI50 [50] was 45.2 µM (inactive) and the GI50 [51] was 24.2 µM (inactive). The GI50 [52] was 99.8 µM (inactive), the GI50 [53] was > 100 µM (inactive) and the GI50 [54] was 17.6 µM (inactive). The GI50 [55] was 41.4 µM (inactive), the GI50 [56] was 36.8 µM (inactive) and the GI50 [57] was > 75.3 µM (inactive). For the same compound, the GI50 [58] was > 75.3 µM (inactive) and the GI50 [59] was 4.49 µM (inactive).
